For 46 compounds, inhibition results are on record in ChEMBL document CHEMBL3987221, “The Australian National University Dept Of Immunology Pathogen Box Compounds Screened” (2018).

Active and inactive are the calls of the source. No rule for the calls is given here.

Assay [1] has as its target T1, Ferrochelatase, mitochondrial (Homo sapiens) (UniProt P22830).
T1 sequence (whole entry): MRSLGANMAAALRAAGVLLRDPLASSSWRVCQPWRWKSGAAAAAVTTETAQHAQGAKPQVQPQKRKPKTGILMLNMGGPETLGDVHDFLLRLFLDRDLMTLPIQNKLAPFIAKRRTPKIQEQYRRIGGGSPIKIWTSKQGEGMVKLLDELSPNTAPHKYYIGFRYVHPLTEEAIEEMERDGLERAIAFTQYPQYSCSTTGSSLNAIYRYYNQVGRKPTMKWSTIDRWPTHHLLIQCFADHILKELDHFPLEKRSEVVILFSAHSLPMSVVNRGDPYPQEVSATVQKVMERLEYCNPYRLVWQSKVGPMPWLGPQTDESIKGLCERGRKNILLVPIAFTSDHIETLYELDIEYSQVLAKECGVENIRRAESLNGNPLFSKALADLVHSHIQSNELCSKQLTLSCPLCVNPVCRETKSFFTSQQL
The settings on record: at 10 µM.
Description: Compound was evaluated for the inhibition of human FECH at 10uM

In assay [2] the target is T2, Porphobilinogen deaminase (Homo sapiens) (UniProt P08397).
T2 sequence (whole entry): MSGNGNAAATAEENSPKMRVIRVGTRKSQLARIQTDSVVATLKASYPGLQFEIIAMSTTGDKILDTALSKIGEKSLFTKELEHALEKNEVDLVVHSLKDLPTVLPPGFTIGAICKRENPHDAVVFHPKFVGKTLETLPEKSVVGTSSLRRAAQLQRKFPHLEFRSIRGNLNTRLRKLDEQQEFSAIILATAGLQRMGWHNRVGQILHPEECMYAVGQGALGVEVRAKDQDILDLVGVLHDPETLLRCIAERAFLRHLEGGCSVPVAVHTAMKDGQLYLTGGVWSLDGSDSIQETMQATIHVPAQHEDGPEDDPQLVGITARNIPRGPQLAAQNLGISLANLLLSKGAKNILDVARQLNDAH
The settings on record: at 100 µM.
Description: Compound was evaluated for the inhibition of human HMBS at 100uM

Take `FC(F)(F)c1nnc2ccc(Cl)nn12`: the inhibition result in assay [1] and in assay [2] was “inactive” each time. `CCC(C)NC(=O)c1ccc(NC(=O)C2(c3ccccc3)CCCC2)cc1` (stereo unspecified): the inhibition entry in assay [1] and in assay [2] was “inactive” throughout. Consider `CC[C@H](CO)NCCN[C@H](CC)CO`, for which the inhibition result in assay [1] and in assay [2] was “inactive” each time. For the compound `CCc1nc2ccc(C(=O)NCc3ccc4c(c3)OCO4)cn2c1N(C)Cc1cccs1`, the inhibition result in assay [1] and in assay [2] was “inactive” each time.

Consider `CC(C)(C)c1cnc(NC(=O)c2ccccc2O)s1`, for which the inhibition result in assay [1] and in assay [2] was “inactive” in each case. `Cc1ccc2c(c1C)NC(=O)C21NN=C(c2ccccc2)S1` (stereo unspecified): the inhibition result in assay [1] and in assay [2] was “inactive” throughout. As to `Cc1cc(NC(=O)c2ccc(S(=O)(=O)N(Cc3ccccc3)C(C)C)cc2)no1`, the inhibition result in assay [1] and in assay [2] was “inactive” throughout. `Cc1cc2nc(NC(=O)C(C)(C)C)nc(Cl)c2n1Cc1ccc(Cl)cc1`: the inhibition entry in assay [1] and in assay [2] was “inactive” each time. Consider `O=C(Nc1c(O)cccc1-c1nc2c(C(=O)O)cccc2o1)c1cc(-c2ccccc2)on1`, for which the inhibition result in assay [1] and in assay [2] was “inactive” throughout. With `OCCc1ccc(Nc2nccc(-c3nnc4ccccn34)n2)cc1`, the inhibition entry in assay [1] and in assay [2] was “inactive” throughout. Consider `CS(=O)(=O)c1ccc(C(=O)N(CC2CCCO2)c2nc3ccccc3s2)cc1[N+](=O)[O-]` (stereo unspecified), for which the inhibition entry in assay [1] and in assay [2] was “inactive” each time. As to `CC(=O)Nc1ccc(-c2noc(CC3CCCN(Cc4cccc(F)c4C)C3)n2)cc1` (stereo unspecified), the inhibition entry in assay [1] and in assay [2] was “inactive” each time. For `O=C1O[C@@H](COc2ccon2)CN1c1cc(F)c(C2=CCN(Cc3ccccc3)CC2)c(F)c1`, the inhibition result in assay [1] and in assay [2] was “inactive” each time. For `CC(=O)NC[C@H]1CN(c2ccc(N3CCSCC3)c(F)c2)C(=O)O1`, the inhibition entry in assay [1] and in assay [2] was “inactive” in each case. On to `CNCCC(Oc1ccc(C(F)(F)F)cc1)c1ccccc1` (stereo unspecified), for which the inhibition entry in assay [1] and in assay [2] was “inactive” throughout. Take `NCC(c1cccs1)S(=O)(=O)c1ccccc1` (stereo unspecified): the inhibition result in assay [1] and in assay [2] was “inactive” throughout. With `Cc1ccc(NC(=O)CC2COc3ccccc3O2)cc1Cl` (stereo unspecified), the inhibition result in assay [1] and in assay [2] was “inactive” in each case. Turning to `CC(C)C(C(=O)Nc1ccc(S(=O)(=O)N(C)C)cc1)c1ccc(Cl)cc1` (stereo unspecified), the inhibition entry in assay [1] and in assay [2] was “inactive” in each case.

On to `Nc1nccc2ccc(-c3ccc4nccn4c3)cc12`, for which the inhibition entry in assay [1] and in assay [2] was “inactive” each time.

For the compound `Cc1cc(NCCc2ccccc2)nc(NC(=N)Nc2ccc(Cl)cc2)n1`, the inhibition result in assay [1] and in assay [2] was “inactive” throughout. On to `FC(F)(F)c1cnc(Sc2nnc(-c3ccncc3)o2)c(Cl)c1`, for which the inhibition entry in assay [1] and in assay [2] was “inactive” throughout.

For the compound `COc1ccc(C2=NN(C3CCCCCC3)C(=O)[C@@H]3CC=CC[C@H]23)cc1OCCCCOc1ccc(-c2nnn[nH]2)cc1`, the inhibition result in assay [1] and in assay [2] was “inactive” throughout. In the case of `O=C(C1CCN(c2nnnn2-c2ccccc2)CC1)N1CCc2ccccc2C1`, the inhibition entry in assay [1] and in assay [2] was “inactive” each time. In the case of `NCCCC(N)(C(=O)O)C(F)F` (stereo unspecified), the inhibition result in assay [1] and in assay [2] was “inactive” in each case. `COc1cc(Br)cc2cc(C(=O)Nc3cccc(C(F)(F)F)c3)c(=O)oc12`: the inhibition result in assay [1] and in assay [2] was “inactive” in each case. For `CCC(Sc1nc2ccccc2o1)C(=O)Nc1nccs1` (stereo unspecified), the inhibition entry in assay [1] and in assay [2] was “inactive” in each case.

Turning to `CC1=NN(c2nc3ccccc3s2)C(=O)C1Cc1cccc2ccccc12` (stereo unspecified), the inhibition entry in assay [1] and in assay [2] was “inactive” in each case. With `O=C(NC1CCN(c2ccnc3ccccc23)C1)c1cccc(C(F)(F)F)c1` (stereo unspecified), the inhibition result in assay [1] and in assay [2] was “inactive” throughout. Consider `Cc1cc(NC(=O)c2ccc(Oc3ccc(Cl)cc3O)o2)no1`, for which the inhibition result in assay [1] and in assay [2] was “inactive” throughout. On to `COc1cc(C2=NCCN2)ccc1-n1cc(-c2cccc(C3=NCCN3)c2)nn1`, for which the inhibition entry in assay [1] and in assay [2] was “inactive” each time. In the case of `Cc1noc(C)c1COc1cccc(C(=O)N=c2[nH]cccc2C)c1`, the inhibition entry in assay [1] and in assay [2] was “inactive” throughout. Regarding `CC(C)(C)C(O)C(Oc1ccc(-c2ccccc2)cc1)n1cncn1` (stereo unspecified), the inhibition entry in assay [1] and in assay [2] was “inactive” in each case. `CCC(NC(=O)c1ccccc1NC(=O)c1ccc(C)cc1)C(=O)OC` (stereo unspecified): the inhibition entry in assay [1] and in assay [2] was “inactive” in each case. With `c1ccc(C[C@@H]2CN(c3nccc(Oc4ccc(-n5ccnc5)cc4)n3)CCN2)cc1`, the inhibition result in assay [1] and in assay [2] was “inactive” in each case. Consider `Cc1ccc2nc(C)c(-c3ccn(Cc4ccccc4)n3)n2c1`, for which the inhibition entry in assay [1] and in assay [2] was “inactive” throughout. `CCc1nn(C)c(C(=O)NCc2ccc(Oc3ccc(C)cc3)cc2)c1Cl`: the inhibition result in assay [1] and in assay [2] was “inactive” throughout. In the case of `Cc1[nH]c2cc(F)cc(F)c2c(=O)c1-c1ccc(Oc2ccc(OC(F)(F)F)cc2)cc1`, the inhibition entry in assay [1] and in assay [2] was “inactive” in each case. Take `Cc1cc2ccccc2n1CC(=O)N1CC(C(=O)N2CCCCC2)Oc2ccccc21` (stereo unspecified): the inhibition result in assay [1] and in assay [2] was “inactive” in each case. As to `O=C(c1[nH]nc2c1CCCC2)N1CCN(Cc2ccc3c(c2)OCO3)CC1`, the inhibition result in assay [1] and in assay [2] was “inactive” each time. Consider `c1ccc(Oc2ccc(-c3cc(N4CCOCC4)[nH]n3)cc2)cc1`, for which the inhibition result in assay [1] and in assay [2] was “inactive” throughout. For `CN1CCN(CCCOc2ncc(Nc3ncc(-c4ccc(C(F)(F)F)c(F)c4)nc3C(N)=O)cn2)CC1`, the inhibition result in assay [1] and in assay [2] was “inactive” throughout. As to `COC(=O)c1cccc2oc(-c3cccc(OC)c3NC(=O)c3cc(-c4ccccc4)on3)nc12`, the inhibition entry in assay [1] and in assay [2] was “inactive” each time. For the compound `COc1ccc(N(CCc2cccc(C)n2)C(C)=O)cc1`, the inhibition result in assay [1] and in assay [2] was “inactive” throughout. As to `CCOc1ccc(OCC(=O)Nc2cc(C)cc(C)c2)cc1`, the inhibition entry in assay [1] and in assay [2] was “inactive” throughout. For `CCOC(=O)c1cc(-c2csc(Nc3c(C)cc(C)cc3C)n2)on1`, the inhibition entry in assay [1] and in assay [2] was “inactive” each time. In the case of `FC(F)(F)c1cc(NCCc2ccccc2)nc(-c2ccccn2)n1`, in assay [2], the inhibition entry was “inactive”.
